Tested on: vaginal proteome (human proteins in vaginal fluid)
Assay: MS/MS proteomic analysis of vaginal fluid pools, BV-affected women before (BV) and after rifaximin/placebo treatment: human proteins
Format: in vivo
Method: Proteomic analysis was performed on 9 pools of vaginal isolates, grouped according to the status of the BV infection: • H pool (from 41 healthy women); BV pool (from 39 BV-affected women); • A-R pool (from 2 women who were in remission after rifaximin treatment-group A); • A-N pool (from 8 women who were not in remission after rifaximin treatment-group A); • B-R pool (from 5 women who were in remission after rifaximin treatment-group B); • B-N pool (from 5 women who were not in remission after rifaximin treatment-group B); • C-R pool (from 4 women who were in remission after rifaximin treatment-group C); • C-N (from 5 women who were not in remission after rifaximin treatment-group C); • D-N (from 10 women who were not in remission after placebo treatment-group D). Scheme of the vaginal fluids collected for testing the diagnostic method is represented in FIG. 1.
In these figures are reported the peptides in the fractionated pools of healthy women, women affected by BV and peptides of women treated with rifaximin. The treatment with rifaximin was at dosage of 100 mg/day for 5 days; (remission, A-R; no remission, A-N), 25 mg/5 days (remission, B-R; no remission, B-N), 100 mg/2 days (remission, C-R; no remission, C-N), and placebo for 5 days (D-N). Two types of comparisons were carried out: (i) between fractionated pools of proteins from vaginal fluid of healthy women (HF) versus fractionated pool of proteins from vaginal fluid of women affected by bacterial vaginosis (BVF); (ii) between whole pools of proteins from vaginal fluid of women affected by BV treated by administering different doses of rifaximin or placebo before (BV) and after (A-R, A-N, B-R, B-N, C-R, C-N, D-N) treatment. Fractioned pools of proteins are obtained, e.g., by separating the proteins by separation on membrane filtration with different membrane porosity, prior to MS/MS analysis.
Nine volumes of acetone: HCl (10:1) were added to the supernatant of the vaginal rinsing and proteins were precipitated by centrifuging at 12000 g for 10 min. The protein pellet was dissolved in 1 mL of 70% ethanol and the sample was spun at 12000 g for 10 min. One mL of acetone was added and the proteins were further precipitated by centrifugation at 12000 g for 5 min. After removing supernatant, pellet was dried by SpeedVac concentrator (Thermo Savant ISS110, Thermo Fisher Scientific, Waltham, Mass.) and then stored at −20° C.
Protein extract was quantified using the 2-D Quant Kit (GE Healthcare, Uppsala, Sweden) according to the manufacturer's instructions.
Patients who were diagnosed for BV at the study visit V1 were included in a multicentre, double-blind, randomised, placebo-controlled study (EudraCT: 2009-011826-32), that was performed to compare the efficacy of different doses of rifaximin vaginal tablets versus placebo for the treatment of BV. The patients underwent a randomisation visit and were distributed into 4 treatment groups: group A received 100 mg rifaximin vaginal tablet once daily for 5 days (n=10), group B received 25 mg rifaximin vaginal tablet once daily for 5 days (n=10), group C received 100 mg rifaximin vaginal tablet once daily for the first 2 days and placebo vaginal tablet for the remaining 3 days (n=9), group D received placebo vaginal tablet once daily for 5 days (n=10). Study medication was administered intra-vaginally at bedtime. After 7 to 10 days from the end of the therapy a follow-up visit (V3) was performed. Remission was evaluated at V3 according to Amsel's criteria (<3) and Gram stain Nugent score (≦3) (Table 1).
Standardized vaginal rinsings with 2 mL of saline were collected for analysis at V1 and V3 by flushing and re-aspirating the fluid through a 22 Gauge needle in the left, central and right upper vaginal vaults. The vaginal rinsings were subsequently stored at −80° C. until use.
MS/MS analysis was carried out for H and BV pools and for the whole BV, A-R, A-N, B-R, B-N, C-R, C-N and D-N pools containing 50 μg of protein each. […]

## CO[C@H]1/C=C/O[C@@]2(C)Oc3c(C)c(O)c4c(O)c(c5c(nc6cc(C)ccn65)c4c3C2=O)NC(=O)/C(C)=C\C=C\[C@H](C)[C@H](O)[C@@H](C)[C@@H](O)[C@@H](C)[C@H](OC(C)=O)[C@@H]1C [rifaximin]
Pool C-N after treatment
  Ratio X/H Sciellin (O95171): 0.0
  Ratio X/H Semenogelin-2 (Q02383): −1.8
  Ratio X/H Serine protease 27 (Q9BQR3): 0.0
  Ratio X/H Serine/threonine-protein kinase ULK1 (O75385): −1.7
  Ratio X/H Serotransferrin (P02787): −1.5
  Ratio X/H Serpin B3 (P29508): 1.6
  Ratio X/H Serpin B4 (P48594): 0.0
  Ratio X/H Serpin B5 (P36952): −2.6
  Ratio X/H Serpin B6 (P35237): 0.0
  Ratio X/H Serpin B9 (P50453): 0.0
  Ratio X/H Serpin B12 (Q96P63): 0.0
  Ratio X/H Serpin B13 (Q9UIV8): 0.0
  Ratio X/H Serum albumin (P02768): −1.6
  Ratio X/H Serum paraoxonase/arylesterase 1 (P27169): 1.5
  Ratio X/H Small proline-rich protein 3 (Q9UBC9): 1.7
  Ratio X/H Stanniocalcin-1 (P52823): 4.0
  Ratio X/H Sulfhydryl oxidase 1 (O00391): 0.0
  Ratio X/H Superoxide dismutase [Cu—Zn] (P00441): 0.0
  Ratio X/H Suprabasin (Q6UWP8): 3.9
  Ratio X/H Syntenin-1 (O00560): 0.0
  Ratio X/H Talin-1 (Q9Y490): 0.0
  Ratio X/H Tctex1 domain-containing protein 2 (Q8WW35): −13.6
  Ratio X/H Teneurin-3 (Q9P273): 10.2
  Ratio X/H Thioredoxin (P10599): 0.0
  Ratio X/H Transaldolase (P37837): −2.2
  Ratio X/H Transmembrane protease serine 11D (O60235): 0.0
  Ratio X/H Transthyretin (P02766): −1.8
  Ratio X/H Tumor protein D54 (O43399): 0.0
  Ratio X/H UTP--glucose-1-phosphate uridylyltransferase (Q16851): 0.0
  Ratio X/H UV excision repair protein RAD23 homolog B (P54727): −1.5
  Ratio X/H Uronyl 2-sulfotransferase (Q9Y2C2): −917.5
  Ratio X/H Versican core protein (P13611): 0.0
  Ratio X/H Vinculin (P18206): 0.0
  Ratio X/H Vitamin D-binding protein (P02774): 0.0
  Ratio X/H Werner syndrome ATP-dependent helicase (Q14191): 12.4
  Ratio X/H Zinc finger protein 185 (O15231): 1.5
  Ratio X/H Zinc finger protein 335 (Q9H4Z2): 0.0
  Ratio X/H Zinc-alpha-2-glycoprotein (P25311): 0.0
  Ratio X/H Zyxin (Q15942): 2.0
Pool C-R after treatment
  Ratio X/H Sciellin (O95171): 0.0
  Ratio X/H Semenogelin-2 (Q02383): 0.0
  Ratio X/H Serine protease 27 (Q9BQR3): −1.5
  Ratio X/H Serine/threonine-protein kinase ULK1 (O75385): −7.4
  Ratio X/H Serotransferrin (P02787): 0.0
  Ratio X/H Serpin B3 (P29508): 2.6
  Ratio X/H Serpin B4 (P48594): 0.0
  Ratio X/H Serpin B5 (P36952): 2.0
  Ratio X/H Serpin B6 (P35237): −2.2
  Ratio X/H Serpin B9 (P50453): −6.6
  Ratio X/H Serpin B12 (Q96P63): −1.7
  Ratio X/H Serpin B13 (Q9UIV8): 0.0
  Ratio X/H Serum albumin (P02768): −2.1
  Ratio X/H Serum paraoxonase/arylesterase 1 (P27169): 0.0
  Ratio X/H Small proline-rich protein 3 (Q9UBC9): 4.4
  Ratio X/H Stanniocalcin-1 (P52823): 13.3
  Ratio X/H Sulfhydryl oxidase 1 (O00391): −1.6
  Ratio X/H Superoxide dismutase [Cu—Zn] (P00441): 0.0
  Ratio X/H Suprabasin (Q6UWP8): 14.4
  Ratio X/H Syntenin-1 (O00560): −2.3
  Ratio X/H Talin-1 (Q9Y490): 0.0
  Ratio X/H Tctex1 domain-containing protein 2 (Q8WW35): 0.0
  Ratio X/H Teneurin-3 (Q9P273): 0.0
  Ratio X/H Thioredoxin (P10599): 0.0
  Ratio X/H Transaldolase (P37837): 2.4
  Ratio X/H Transmembrane protease serine 11D (O60235): 0.0
  Ratio X/H Transthyretin (P02766): 0.0
  Ratio X/H Tumor protein D54 (O43399): 0.0
  Ratio X/H UTP--glucose-1-phosphate uridylyltransferase (Q16851): 0.0
  Ratio X/H UV excision repair protein RAD23 homolog B (P54727): −2.2
  Ratio X/H Uronyl 2-sulfotransferase (Q9Y2C2): −7.7
  Ratio X/H Versican core protein (P13611): 0.0
  Ratio X/H Vinculin (P18206): 0.0
  Ratio X/H Vitamin D-binding protein (P02774): 0.0
  Ratio X/H Werner syndrome ATP-dependent helicase (Q14191): 209.6
  Ratio X/H Zinc finger protein 185 (O15231): 1.8
  Ratio X/H Zinc finger protein 335 (Q9H4Z2): 0.0
  Ratio X/H Zinc-alpha-2-glycoprotein (P25311): 0.0
  Ratio X/H Zyxin (Q15942): 0.0

Reference: patent publication US20160047819A1, “METHOD FOR DIAGNOSING VAGINAL INFECTIONS” (priority 2013, published 2016)
